From patent US8344118B2, “Preparation and isolation of 5′ capped MRNA” (Applied Biosystems, LLC, priority 2007, dated 2013)

What was measured:
[1] = test system: phage RNA polymerase such as T7, T3 or SP6; conditions: m^7GpppG to GTP (4:1); cited from earlier work
T7 RNA polymerase = T7 RNA polymerase (Escherichia phage T7, UniProt P00573); conditions: linearized pTri β actin vector template, 37° C. for 2 hr, 20% dPAGE gel, FIG. 9
Sequence of T7 RNA polymerase (P00573 whole entry): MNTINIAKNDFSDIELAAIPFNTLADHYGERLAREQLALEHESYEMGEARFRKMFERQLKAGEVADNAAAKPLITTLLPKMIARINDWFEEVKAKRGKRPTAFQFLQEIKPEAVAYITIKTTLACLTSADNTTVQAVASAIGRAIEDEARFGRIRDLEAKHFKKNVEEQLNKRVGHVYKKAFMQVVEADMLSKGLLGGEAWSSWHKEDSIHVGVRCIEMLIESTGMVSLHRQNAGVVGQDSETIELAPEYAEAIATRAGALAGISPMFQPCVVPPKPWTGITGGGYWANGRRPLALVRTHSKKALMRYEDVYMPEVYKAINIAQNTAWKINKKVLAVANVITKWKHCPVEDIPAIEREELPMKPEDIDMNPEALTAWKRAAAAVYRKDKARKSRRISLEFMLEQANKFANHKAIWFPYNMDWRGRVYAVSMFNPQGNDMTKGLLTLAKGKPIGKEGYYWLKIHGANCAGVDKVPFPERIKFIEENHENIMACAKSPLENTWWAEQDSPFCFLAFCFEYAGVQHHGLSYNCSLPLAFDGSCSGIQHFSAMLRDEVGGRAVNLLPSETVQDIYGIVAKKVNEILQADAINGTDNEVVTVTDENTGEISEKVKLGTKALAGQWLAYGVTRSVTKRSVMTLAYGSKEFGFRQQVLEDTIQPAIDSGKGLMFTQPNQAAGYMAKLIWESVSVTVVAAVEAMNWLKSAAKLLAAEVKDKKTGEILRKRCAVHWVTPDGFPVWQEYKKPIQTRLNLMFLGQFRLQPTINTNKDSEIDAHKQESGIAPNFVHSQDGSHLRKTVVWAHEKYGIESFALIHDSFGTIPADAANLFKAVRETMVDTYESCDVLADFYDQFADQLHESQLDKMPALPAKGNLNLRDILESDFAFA
Protocol: A Gel Shift assay was performed by using the MAXIscript™ kit (Ambion, Inc.) following the manufacturer's protocol. The assay determines if the modified cap analogs were substrates for T7 RNA polymerase. Typical 20 μL of T7 RNA polymerase transcriptions contained the following reagents at the final concentrations indicated: linearized pTri β actin vector template, 0.5 μg; ATP, 2 mmol; GTP, 0.4 mmol; 1.6 mmol each CTP and UTP, in a separate reaction; 10× reaction buffer, 4×; T7 RNA polymerase, 50 units/μL; (α-^32P) ATP, 800 (Ci/mmol); and DEPC water. The control reaction was a normal in vitro transcription reaction, in which no cap analog was added. The transcription reactions were incubated at 37° C. for 2 hr, after which the reaction mixtures were then applied to a 20% dPAGE gel. The assay detects specific structure or size changes described as gel shifts. When structure change or size change occurs it creates complexes that migrate slower during gel electrophoresis than the original complex.

Structure (SMILES)	capped RNA [1]	capped RNA (T7 RNA polymerase)
Cn1c[n+]([C@@H]2O[C@H](COP(=O)(O)OP(=O)(O)OP(=O)(O)OC[C@H]3O[C@@H](n4cnc5c(=O)[nH]c(N)nc54)[C@H](O)[C@@H]3O)[C@@H](O)[C@H]2O)c2nc(N)[nH]c(=O)c21 [m^7GpppG, m^7G(5′)ppp(5′)G]	80%	
NCC=Cc1cn(C2OC(COP(=O)(O)OP(=O)(O)OP(=O)(O)OP(=O)(O)OCC3OC(n4cnc5c(=O)[nH]c(N)nc54)C(O)C3O)C(O)C2O)c(=O)[nH]c1=O (centres unmarked) [Compound 1, G[5′]pppp[5′]U-Aminoallyl]		about 65%
